Measurements published in PubChem BioAssay (NCI).
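Method: 48-hour compound exposure of cells in 96-well plates, five concentrations, linear interpolation of endpoints. TGI denotes the concentration required for complete inhibition of growth.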

Key:
Assay in all cases: NCI tumour cell line growth inhibition, 48 h
786-0 renal = tested on: 786-0 renal
A498 renal = tested on: A498 renal
A549 NSCLC = tested on: A549 NSCLC
ACHN renal = tested on: ACHN renal
BT-549 breast = tested on: BT-549 breast
CAKI-1 renal = tested on: CAKI-1 renal
CCRF-CEM leukemia = tested on: CCRF-CEM leukemia
COLO 205 colon = tested on: COLO 205 colon
DU-145 prostate = tested on: DU-145 prostate
EKVX NSCLC = tested on: EKVX NSCLC
HCC-2998 colon = tested on: HCC-2998 colon
HCT-116 colon = tested on: HCT-116 colon
HCT-15 colon = tested on: HCT-15 colon
HL-60(TB) leukemia = tested on: HL-60(TB) leukemia
HOP-62 NSCLC = tested on: HOP-62 NSCLC
HOP-92 NSCLC = tested on: HOP-92 NSCLC
HS 578T breast = tested on: HS 578T breast
HT29 colon = tested on: HT29 colon
IGROV1 ovarian = tested on: IGROV1 ovarian
K-562 leukemia = tested on: K-562 leukemia
KM12 colon = tested on: KM12 colon
LOX IMVI melanoma = tested on: LOX IMVI melanoma
M14 melanoma = tested on: M14 melanoma
MALME-3M melanoma = tested on: MALME-3M melanoma
MCF7 breast = tested on: MCF7 breast
MDA-MB-231 breast = tested on: MDA-MB-231 breast
MDA-MB-435 = tested on: MDA-MB-435
MDA-N = tested on: MDA-N
MOLT-4 leukemia = tested on: MOLT-4 leukemia
NCI-H226 lung = tested on: NCI-H226 lung
NCI-H23 lung = tested on: NCI-H23 lung
NCI-H460 lung = tested on: NCI-H460 lung
NCI-H522 lung = tested on: NCI-H522 lung
NCI/ADR-RES ovarian = tested on: NCI/ADR-RES ovarian
OVCAR-3 ovarian = tested on: OVCAR-3 ovarian
OVCAR-4 ovarian = tested on: OVCAR-4 ovarian
OVCAR-5 ovarian = tested on: OVCAR-5 ovarian
OVCAR-8 ovarian = tested on: OVCAR-8 ovarian
PC-3 prostate = tested on: PC-3 prostate
RPMI-8226 leukemia = tested on: RPMI-8226 leukemia
RXF 393 renal = tested on: RXF 393 renal
SF-268 CNS = tested on: SF-268 CNS
SF-295 CNS = tested on: SF-295 CNS
SF-539 CNS = tested on: SF-539 CNS
SK-MEL-2 melanoma = tested on: SK-MEL-2 melanoma
SK-MEL-28 melanoma = tested on: SK-MEL-28 melanoma
SK-MEL-5 melanoma = tested on: SK-MEL-5 melanoma
SK-OV-3 ovarian = tested on: SK-OV-3 ovarian
SN12C renal = tested on: SN12C renal
SNB-19 CNS = tested on: SNB-19 CNS
SNB-75 CNS = tested on: SNB-75 CNS
SR leukemia = tested on: SR leukemia
SW-620 colon = tested on: SW-620 colon
T-47D breast = tested on: T-47D breast
TK-10 renal = tested on: TK-10 renal
U251 CNS = tested on: U251 CNS
UACC-257 melanoma = tested on: UACC-257 melanoma
UACC-62 melanoma = tested on: UACC-62 melanoma
UO-31 renal = tested on: UO-31 renal

`Clc1ccc(COc2ccccc2/C=N/c2c(-c3ccco3)nc3ccccn23)c(Cl)c1` gave a TGI (786-0 renal) of 75.9 µM, a TGI (A498 renal) greater than 100 µM and a TGI (A549 NSCLC) greater than 100 µM. The TGI (ACHN renal) was greater than 100 µM, the TGI (BT-549 breast) was 89.6 µM and the TGI (CAKI-1 renal) was greater than 100 µM. The TGI (CCRF-CEM leukemia) was 63.7 µM, the TGI (COLO 205 colon) was greater than 100 µM and the TGI (DU-145 prostate) was 76 µM. It also gave a TGI (EKVX NSCLC) greater than 100 µM, a TGI (HCC-2998 colon) greater than 100 µM and a TGI (HCT-116 colon) of 36.7 µM. The TGI (HCT-15 colon) was 88.3 µM, the TGI (HL-60(TB) leukemia) was 71.2 µM and the TGI (HOP-62 NSCLC) was greater than 100 µM. For the same compound, the TGI (HOP-92 NSCLC) was 57.4 µM, the TGI (HS 578T breast) was greater than 100 µM and the TGI (HT29 colon) was greater than 100 µM. For the same compound, the TGI (IGROV1 ovarian) was greater than 100 µM, the TGI (K-562 leukemia) was greater than 100 µM and the TGI (KM12 colon) was greater than 100 µM. It also gave a TGI (LOX IMVI melanoma) of 35.5 µM, a TGI (M14 melanoma) of 74.1 µM and a TGI (MALME-3M melanoma) greater than 100 µM. The TGI (MCF7 breast) was 62 µM, the TGI (MDA-MB-231 breast) was 52.6 µM and the TGI (MDA-MB-435) was 49.1 µM. It also gave a TGI (MDA-N) of 70.2 µM, a TGI (MOLT-4 leukemia) greater than 100 µM and a TGI (NCI-H226 lung) greater than 100 µM. The TGI (NCI-H23 lung) was greater than 100 µM, the TGI (NCI-H460 lung) was greater than 100 µM and the TGI (NCI-H522 lung) was greater than 100 µM. The TGI (NCI/ADR-RES ovarian) was 96.1 µM, the TGI (OVCAR-3 ovarian) was greater than 100 µM and the TGI (OVCAR-4 ovarian) was greater than 100 µM. The TGI (OVCAR-5 ovarian) was greater than 100 µM, the TGI (OVCAR-8 ovarian) was greater than 100 µM and the TGI (PC-3 prostate) was greater than 100 µM. It also gave a TGI (RPMI-8226 leukemia) of 86.2 µM, a TGI (RXF 393 renal) of 56.3 µM and a TGI (SF-268 CNS) greater than 100 µM. It also gave a TGI (SF-295 CNS) greater than 100 µM, a TGI (SF-539 CNS) of 47.3 µM and a TGI (SK-MEL-2 melanoma) of 42.8 µM. It also gave a TGI (SK-MEL-28 melanoma) greater than 100 µM, a TGI (SK-MEL-5 melanoma) of 32 µM and a TGI (SK-OV-3 ovarian) greater than 100 µM. For the same compound, the TGI (SN12C renal) was 66.6 µM, the TGI (SNB-19 CNS) was greater than 100 µM and the TGI (SNB-75 CNS) was 69.7 µM. It also gave a TGI (SR leukemia) of 49.2 µM, a TGI (SW-620 colon) greater than 100 µM and a TGI (T-47D breast) greater than 100 µM. For the same compound, the TGI (TK-10 renal) was 88.6 µM, the TGI (U251 CNS) was greater than 100 µM and the TGI (UACC-257 melanoma) was greater than 100 µM. For the same compound, the TGI (UACC-62 melanoma) was greater than 100 µM and the TGI (UO-31 renal) was greater than 100 µM.
`C=C1CC2(CC(c3ccccc3OC)OC(c3ccccc3OC)C2)OC1=O` (configuration not stated) was tested, and the TGI (786-0 renal) was 3.01 µM, the TGI (A498 renal) was 12.1 µM and the TGI (A549 NSCLC) was 11.2 µM. For the same compound, the TGI (ACHN renal) was 5.41 µM, the TGI (BT-549 breast) was 3.12 µM and the TGI (CAKI-1 renal) was 7.13 µM. The TGI (CCRF-CEM leukemia) was 4.47 µM, the TGI (COLO 205 colon) was 4.06 µM and the TGI (DU-145 prostate) was 20.2 µM. The TGI (EKVX NSCLC) was 27.7 µM, the TGI (HCC-2998 colon) was 5.92 µM and the TGI (HCT-116 colon) was 3.3 µM. For the same compound, the TGI (HCT-15 colon) was 4.5 µM, the TGI (HL-60(TB) leukemia) was 3.51 µM and the TGI (HOP-62 NSCLC) was 26.8 µM. For the same compound, the TGI (HOP-92 NSCLC) was 3.09 µM, the TGI (HS 578T breast) was 4.9 µM and the TGI (HT29 colon) was 4.32 µM. It also gave a TGI (IGROV1 ovarian) of 3.37 µM, a TGI (K-562 leukemia) of 5.32 µM and a TGI (KM12 colon) of 6.65 µM. The TGI (LOX IMVI melanoma) was 2.98 µM, the TGI (M14 melanoma) was 3.35 µM and the TGI (MALME-3M melanoma) was 3.31 µM. It also gave a TGI (MCF7 breast) of 3.32 µM, a TGI (MDA-MB-231 breast) of 3.45 µM and a TGI (MDA-MB-435) of 3.56 µM. For the same compound, the TGI (MDA-N) was 3.44 µM, the TGI (MOLT-4 leukemia) was 5.52 µM and the TGI (NCI-H226 lung) was 19.4 µM. The TGI (NCI-H23 lung) was 4.62 µM, the TGI (NCI-H460 lung) was 17.7 µM and the TGI (NCI-H522 lung) was 2.98 µM. The TGI (NCI/ADR-RES ovarian) was 7.73 µM, the TGI (OVCAR-3 ovarian) was 3.7 µM and the TGI (OVCAR-4 ovarian) was 11 µM. For the same compound, the TGI (OVCAR-5 ovarian) was 18.6 µM, the TGI (OVCAR-8 ovarian) was 3.56 µM and the TGI (PC-3 prostate) was 4.33 µM. It also gave a TGI (RPMI-8226 leukemia) of 1.45 µM, a TGI (RXF 393 renal) of 3.31 µM and a TGI (SF-268 CNS) of 6.41 µM. The TGI (SF-295 CNS) was 14.4 µM, the TGI (SF-539 CNS) was 4.95 µM and the TGI (SK-MEL-2 melanoma) was 3.45 µM. For the same compound, the TGI (SK-MEL-28 melanoma) was 2.17 µM, the TGI (SK-MEL-5 melanoma) was 7.05 µM and the TGI (SK-OV-3 ovarian) was 25.5 µM. The TGI (SN12C renal) was 4.05 µM, the TGI (SNB-19 CNS) was 14 µM and the TGI (SNB-75 CNS) was 9.09 µM. It also gave a TGI (SR leukemia) of 4.92 µM, a TGI (SW-620 colon) of 4.03 µM and a TGI (T-47D breast) of 3.4 µM. For the same compound, the TGI (TK-10 renal) was 4.31 µM, the TGI (U251 CNS) was 13.6 µM and the TGI (UACC-257 melanoma) was 4.23 µM. It also gave a TGI (UACC-62 melanoma) of 4.26 µM and a TGI (UO-31 renal) of 2.85 µM.
`CCCCCC(=O)Nc1n[nH]nc1C#N` showed a TGI (786-0 renal) greater than 100 µM, a TGI (A498 renal) greater than 100 µM and a TGI (A549 NSCLC) greater than 100 µM. For the same compound, the TGI (ACHN renal) was greater than 100 µM, the TGI (BT-549 breast) was greater than 100 µM and the TGI (CAKI-1 renal) was greater than 100 µM. It also gave a TGI (CCRF-CEM leukemia) greater than 100 µM, a TGI (COLO 205 colon) greater than 100 µM and a TGI (DU-145 prostate) greater than 100 µM. The TGI (EKVX NSCLC) was greater than 100 µM, the TGI (HCC-2998 colon) was greater than 100 µM and the TGI (HCT-116 colon) was greater than 100 µM. For the same compound, the TGI (HCT-15 colon) was greater than 100 µM, the TGI (HL-60(TB) leukemia) was greater than 100 µM and the TGI (HOP-62 NSCLC) was greater than 100 µM. The TGI (HOP-92 NSCLC) was greater than 100 µM, the TGI (HS 578T breast) was greater than 100 µM and the TGI (HT29 colon) was greater than 100 µM. For the same compound, the TGI (IGROV1 ovarian) was greater than 100 µM, the TGI (K-562 leukemia) was greater than 100 µM and the TGI (KM12 colon) was greater than 100 µM. It also gave a TGI (LOX IMVI melanoma) greater than 100 µM, a TGI (M14 melanoma) greater than 100 µM and a TGI (MALME-3M melanoma) greater than 100 µM. It also gave a TGI (MCF7 breast) greater than 100 µM, a TGI (MDA-MB-231 breast) greater than 100 µM and a TGI (MDA-MB-435) greater than 100 µM. The TGI (MDA-N) was greater than 100 µM, the TGI (MOLT-4 leukemia) was greater than 100 µM and the TGI (NCI-H226 lung) was greater than 100 µM. The TGI (NCI-H23 lung) was greater than 100 µM, the TGI (NCI-H460 lung) was greater than 100 µM and the TGI (NCI-H522 lung) was greater than 100 µM. It also gave a TGI (NCI/ADR-RES ovarian) greater than 100 µM, a TGI (OVCAR-3 ovarian) greater than 100 µM and a TGI (OVCAR-4 ovarian) greater than 100 µM. For the same compound, the TGI (OVCAR-5 ovarian) was greater than 100 µM, the TGI (OVCAR-8 ovarian) was greater than 100 µM and the TGI (PC-3 prostate) was greater than 100 µM. The TGI (RPMI-8226 leukemia) was greater than 100 µM, the TGI (RXF 393 renal) was greater than 100 µM and the TGI (SF-268 CNS) was greater than 100 µM. For the same compound, the TGI (SF-295 CNS) was greater than 100 µM, the TGI (SF-539 CNS) was greater than 100 µM and the TGI (SK-MEL-2 melanoma) was greater than 100 µM. It also gave a TGI (SK-MEL-28 melanoma) greater than 100 µM, a TGI (SK-MEL-5 melanoma) greater than 100 µM and a TGI (SK-OV-3 ovarian) greater than 100 µM. The TGI (SN12C renal) was greater than 100 µM, the TGI (SNB-19 CNS) was greater than 100 µM and the TGI (SNB-75 CNS) was greater than 100 µM. For the same compound, the TGI (SR leukemia) was greater than 100 µM, the TGI (SW-620 colon) was greater than 100 µM and the TGI (T-47D breast) was greater than 100 µM. The TGI (TK-10 renal) was greater than 100 µM, the TGI (U251 CNS) was greater than 100 µM and the TGI (UACC-257 melanoma) was greater than 100 µM. The TGI (UACC-62 melanoma) was greater than 100 µM and the TGI (UO-31 renal) was greater than 100 µM.
